Legend:
Format in all cases: cell-based
[1] = test system: Staphylococcus epidermidis; experiment: Contact germicidal screen, Staphylococcus epidermidis ATCC No. 12228
Experimental: The organisms used in the contact germicidal screen are all maintained as stock cultures on nutrient agar […] 4° C. They are transferred and biochemically diagnosed monthly. The five organisms used are: The media used are: […] Overnight cultures of the test organisms are grown in tryptose phosphate broth. After 15-16 hours, the cultures are centrifuged at […] for 15 minutes, and the supernatant replaced with fresh warm (37° C.) media. After two hours of incubation, the absorbance of the culture at 650 nm is determined and diluted with nutrient broth to 1×10^7 colony forming units per ml (using a previous determined standard curve: colony forming units/ml vs. absorbance at 650). The diluted cultures are maintained at 4°-8° C. throughout the screen. The compounds are weighed into sterile 100 ml volumetric flasks, and immediately before screening dissolved in one of the following buffers: 0.1 M NaOAc pH 4.6 or 0.1 M NaH2 PO4 pH 7.0. If solubility poses a problem, 10-30% methanol is used to effect solution. Two denaturing agents are also tested: […] Horse Serum restored with 100 ml distilled water and 10% Trition×100. When used, 2.5 ml of the denaturing agent is mixed with 2.5 ml of double strength test solution thirty minutes before the bacterial suspension is added. The screen is initiated when 0.2 ml of the bacterial suspension is added to 5.0 ml of the test solution contained in a sterile 25 ml glass stoppered flask. At intervals of 0.5, 2.5, 5.0, 10.0 and 15.0 minutes, a loopful of the inoculated test solution is subcultured into 5 ml of sterile nutrient broth and mixed with a vortex, the high dilution serving to stop the action of the compound. All of the subculture tubes are incubated at 37° C. and checked for signs of growth by turbidity at 1, 3, 5 and 7 days. The earliest subculture time at which no growth is present is considered the endpoint and is recorded as the sterilization time. An aliquot of 0.2 ml of the diluted culture is transferred to 5 ml of buffer to simulate 0.2 ml in 5 ml of test solution. (a) Purity: A loopful of the inoculated buffer is streaked onto nutrient agar to check colony morphology and lack of contaminants. (b) Viability: A loopful of the inoculated buffer is subcultured to 5 ml of nutrient broth as in the screen and incubated at 37° C. for 24 hours. (c) Dilution of the Test Solution: A loopful of the test solution is transferred to a 5 ml tube of nutrient broth, and a loopful of the inoculated buffer is transferred to the same tube of broth. […] (d) Purity of Organisms in the Test Solution: After the 15 minute subculture, a loopful of the inoculated test solution is streaked onto nutrient agar to insure that contamination has not occurred during the screen. (e) lack of Bactericidal Activity of Buffers and Other Solvents: Before a buffer or other solvent is used as a diluent, it is screened against the five organisms to insure that the buffer or solvent has no antibacterial activity itself.

[2] = test system: Trychophyton mentagrophytes; experiment: Contact fungicidal screen, Trychophyton mentagrophytes; conditions: 0.1M NaOAc pH 4.6
[3] = test system: Microsporum canis; experiment: Contact fungicidal screen, Microsporum canis; conditions: 0.1M NaOAc pH 4.6
Experimental: The organisms used in the Contact Fungicidal Screen are a dermatophyte, trychophyton mentagrophytes, frequently associated with athlete's foot; a yeast, Candida albican, causative agent of thrush and vaginitis; a phycomycete, Rhizopus oryzae, commonly known as black bread mold; an ascomycete, Aspergillus fumagatis, found in chicken droppings and causing lung infections; and another dermatophyte, Microsporum canis, which causes ringworm. These organisms are maintained as stock cultures at 4° C. on agar […] of the following composition: dextrose 2%, Neopeptone (Difco) 1%, agar 2%. Fluid medium of the same nutrient composition (without agar) was used to test the viability of the organisms after exposure to the fungicide. This medium is also known as Sabouraud's medium. Sabouraud's agar plate cultures of Aspergillus fumigatus, Microsporum canis, and a different culture of Trychophyton mentagrophytes are prepared by planting an inoculum at the center of an agar plate and incubating at 25°-30° C. for seven to ten days. The mycelial mats are removed from the surface of the agar and prepared in the same manner as the Rhizopus culture. The compounds are weighed into heat sterilized 100 ml volumetric flasks and immediately before screening dissolved in 0.1 M NaOAc pH 4.6 buffer (test solutions). The Aspergillus, Candida, Microsporum and Rhizopus species are screened in a slightly different manner. Basically, the procedure for the Contact Germicidal Efficiency Screen is utilized. After the test solutions are made up, 5 ml aliquots are pipetted into heat sterilized 25 ml glass stoppered erlenmeyer flasks. The screen is initiated when 0.5 ml of the 5×10^6 cell (spore) per ml suspension is added to the flask containing 5 ml of the test solution. […] The subculture tubes are incubated at 25°-30° C. for ten days with daily observation for mycelial growth. The earliest subculture time at which no growth is present is considered the endpoint and is recorded as the sterilization time. To insure the viability of the culture, a 0.5 ml aliquot of the 5×10^6 cells (spores) per ml suspension is transferred to 5 ml of the pH 4.6 buffer. A loopful of the inoculated buffer is then subcultured to 7 ml of fluid Sabouraud's medium and incubated at 25°-30° C. for ten days. To insure that the dilution of the test solution into the subculture medium does stop the action, a loopful of the test solution and a loopful of the inoculated buffer are transferred into the same subculture tube. This tube is also incubated at 25°-30° C. for ten days.

[4] = 10.0+ PPM, 0.1M NaOAc pH 4.6, screened simultaneously with four other compounds
[5] = 300 PPM with 50% Horse Serum, 0.1M NaOAc pH 4.6
[6] = 300 PPM with 50% Triton X100, 0.1M NaOAc pH 4.6
[7] = 1000 PPM with 50% Horse Serum, 0.1M NaOAc pH 4.6
[8] = 308.0 PPM, Triton X100 (10% solution):pH 4.6 buffer 1:1

Compound: CC(C)(COC(=O)CCCC(=O)O)N(Cl)Cl [(V), 2-dichloramino-2-methylpropyl-hemiglutarate]
- Sterilization Time [1, 4]: 10.0 min
- Sterilization Time ([1]; 10.0 PPM, 0.1M NaH2PO4 pH 7.0): 15 min
- Sterilization Time (summary) ([1]; 10 PPM, 0.1M NaOAc pH 4.6): 10.0 min
- Sterilization Time ([1]; 10.0 PPM, 0.1M NaOAc pH 4.6): 10.0 min
- Sterilization Time ([1]; 99.1 PPM, 0.1M NaOAc pH 4.6): 2.5 min
- Sterilization Time (summary) ([1]; 100 PPM, 0.1M NaOAc pH 4.6): 2.5 min
- Sterilization Time ([1]; 106.7 PPM, 0.1M NaH2PO4 pH 7.0): 15 min
- Sterilization Time ([1]; 291.4 PPM, Triton X100 (10% solution):pH 4.6 buffer 1:1): 2.5 min
- Sterilization Time ([1]; 291.4 PPM, horse serum:pH 4.6 buffer 1:1): 15 min
- Sterilization Time (summary) [1, 5]: 15 min
- Sterilization Time (summary) [1, 6]: 2.5 min
- Sterilization Time ([1]; 911.8 PPM, 0.1M NaOAc pH 4.6): 0.5 min
- Sterilization Time (summary) [1, 7]: 2.5 min
- Sterilization Time (summary) ([1]; 1000 PPM, 0.1M NaOAc pH 4.6): 0.5 min
- Sterilization Time ([1]; 1024.4 PPM, 0.1M NaH2PO4 pH 7.0): 10.0 min
- Sterilization Time ([1]; 1042.0 PPM, horse serum:pH 4.6 buffer 1:1): 2.5 min
- Sterilization Time ([2]; 10 PPM): 5.0 min
- Sterilization Time ([2]; 100 PPM): 2.5 min
- Sterilization Time ([2]; 1000 PPM): 0.5 min
- Sterilization Time ([3]; 10 PPM): 15 min
- Sterilization Time ([3]; 100 PPM): 5.0 min
- Sterilization Time ([3]; 1000 PPM): 2.5 min

Compound: CC(C)(CC(=O)O)N(Cl)Cl [(II)]
- Sterilization Time ([1]; 1.8 PPM, 0.1M NaOAc pH 4.6): 15 min
- Sterilization Time ([1]; 4.5 PPM, 0.1M NaOAc pH 4.6): 10.0 min
- Sterilization Time [1, 4]: 2.5 min
- Sterilization Time (summary) ([1]; 10 PPM, 0.1M NaOAc pH 4.6): 2.5 min
- Sterilization Time ([1]; 10.0 PPM, 0.1M NaOAc pH 4.6): 5.0 min
- Sterilization Time ([1]; 12.2 PPM, 0.1M NaOAc pH 4.6): 2.5 min
- Sterilization Time ([1]; 32.1 PPM, 0.1M NaOAc pH 4.6): 2.5 min
- Sterilization Time ([1]; 51.0 PPM, Triton X100 (10% solution):pH 4.6 buffer 1:1): 2.5 min
- Sterilization Time ([1]; 51.0 PPM, horse serum:pH 4.6 buffer 1:1): 15 min
- Sterilization Time ([1]; 71.7 PPM, 0.1M NaOAc pH 4.6): 0.5 min
- Sterilization Time (summary) ([1]; 100 PPM, 0.1M NaOAc pH 4.6): 0.5 min
- Sterilization Time ([1]; 104.7 PPM, 0.1M NaOAc pH 4.6): 0.5 min
- Sterilization Time ([1]; 107.8 PPM, 0.1M NaH2PO4 pH 7.0): 15.0 min
- Sterilization Time ([1]; 298.9 PPM, 0.1M NaOAc pH 4.6): 0.5 min
- Sterilization Time (summary) [1, 5]: 15 min
- Sterilization Time (summary) [1, 6]: 0.5 min
- Sterilization Time ([1]; 300 PPM, pH 4.6 buffer with 10% serum): 0.5 min
- Sterilization Time ([1]; 300 PPM, pH 4.6 buffer with 20% serum): 2.5 min
- Sterilization Time ([1]; 300 PPM, pH 4.6 buffer with 35% serum): 15.0 min
- Sterilization Time ([1]; 304.6 PPM, horse serum:pH 4.6 buffer 1:1): 15 min
- Sterilization Time ([1]; 304.8 PPM, Triton X100 (10% solution):pH 4.6 buffer 1:1): 0.5 min
- Sterilization Time ([1]; 316.6 PPM, 0.1M NaH2PO4 pH 7.0): 10.0 min
- Sterilization Time ([1]; 606.9 PPM, pH 4.6 buffer with 33% serum): 0.5 min
- Sterilization Time ([1]; 899.25 PPM, pH 4.6 buffer with 25% serum): 0.5 min
- Sterilization Time (summary) [1, 7]: 0.5 min
- Sterilization Time (summary) ([1]; 1000 PPM, 0.1M NaOAc pH 4.6): 0.5 min
- Sterilization Time ([1]; 1001.2 PPM, horse serum:pH 4.6 buffer 1:1): 0.5 min
- Sterilization Time ([1]; 1014.8 PPM, 0.1M NaOAc pH 4.6): 0.5 min
- Sterilization Time ([1]; 1016.0 PPM, 0.1M NaH2PO4 pH 7.0): 2.5 min
- Sterilization Time ([2]; 10 PPM): 5.0 min
- Sterilization Time ([2]; 100 PPM): 0.5 min
- Sterilization Time ([2]; 1000 PPM): 0.5 min
- Sterilization Time ([3]; 10 PPM): 15 min
- Sterilization Time ([3]; 100 PPM): 10.0 min
- Sterilization Time ([3]; 1000 PPM): 2.5 min

Compound: CC(C)(CCC(=O)O)N(Cl)Cl [(III), 4-Dichloroamino-4-methylvaleric acid]
- Sterilization Time ([1]; 9.6 PPM, 0.1M NaOAc pH 4.6): 5.0 min
- Sterilization Time ([1]; 9.7 PPM, 0.1M NaH2PO4 pH 7.0): 15 min
- Sterilization Time [1, 4]: 10.0 min
- Sterilization Time (summary) ([1]; 10 PPM, 0.1M NaOAc pH 4.6): 10.0 min
- Sterilization Time (summary) ([1]; 100 PPM, 0.1M NaOAc pH 4.6): 0.5 min
- Sterilization Time ([1]; 102.2 PPM, 0.1M NaOAc pH 4.6): 0.5 min
- Sterilization Time ([1]; 103.5 PPM, 0.1M NaH2PO4 pH 7.0): 15 min
- Sterilization Time (summary) [1, 5]: 10.0 min
- Sterilization Time (summary) [1, 6]: 2.5 min
- Sterilization Time [1, 8]: 2.5 min
- Sterilization Time ([1]; 308.0 PPM, horse serum:pH 4.6 buffer 1:1): 10.0 min
- Sterilization Time (summary) [1, 7]: 2.5 min
- Sterilization Time (summary) ([1]; 1000 PPM, 0.1M NaOAc pH 4.6): 0.5 min
- Sterilization Time ([1]; 1000.0 PPM, horse serum:pH 4.6 buffer 1:1): 2.5 min
- Sterilization Time ([1]; 1007.7 PPM, 0.1M NaOAc pH 4.6): 0.5 min
- Sterilization Time ([1]; 1012.3 PPM, 0.1M NaH2PO4 pH 7.0): 5.0 min
- Sterilization Time ([2]; 10 PPM): 5.0 min
- Sterilization Time ([2]; 100 PPM): 0.5 min
- Sterilization Time ([2]; 1000 PPM): 0.5 min
- Sterilization Time ([3]; 10 PPM): 15 min
- Sterilization Time ([3]; 100 PPM): 5.0 min
- Sterilization Time ([3]; 1000 PPM): 0.5 min

Compound: CC(C)(COC(=O)CCC(=O)O)N(Cl)Cl [(IV), 2-Dichloroamino-2-methylpropylhemisuccinate]
- Sterilization Time ([1]; 8.6 PPM, 0.1M NaOAc pH 4.6): 15.0 min
- Sterilization Time ([1]; 9.8 PPM, 0.1M NaH2PO4 pH 7.0): 15 min
- Sterilization Time [1, 4]: 10.0 min
- Sterilization Time (summary) ([1]; 10 PPM, 0.1M NaOAc pH 4.6): 10.0 min
- Sterilization Time (summary) ([1]; 100 PPM, 0.1M NaOAc pH 4.6): 2.5 min
- Sterilization Time ([1]; 106.2 PPM, 0.1M NaOAc pH 4.6): 2.5 min
- Sterilization Time ([1]; 149.7 PPM, 0.1M NaH2PO4 pH 7.0): 15 min
- Sterilization Time (summary) [1, 5]: 15 min
- Sterilization Time (summary) [1, 6]: 2.5 min
- Sterilization Time [1, 8]: 2.5 min
- Sterilization Time ([1]; 338.7 PPM, horse serum:pH 4.6 buffer 1:1): 15 min
- Sterilization Time (summary) [1, 7]: 2.5 min
- Sterilization Time (summary) ([1]; 1000 PPM, 0.1M NaOAc pH 4.6): 0.5 min
- Sterilization Time ([1]; 1008.0 PPM, 0.1M NaOAc pH 4.6): 0.5 min
- Sterilization Time ([1]; 1024.0 PPM, horse serum:pH 4.6 buffer 1:1): 2.5 min
- Sterilization Time ([1]; 1070.3 PPM, 0.1M NaH2PO4 pH 7.0): 10.0 min
- Sterilization Time ([2]; 10 PPM): 5.0 min
- Sterilization Time ([2]; 100 PPM): 2.5 min
- Sterilization Time ([2]; 1000 PPM): 0.5 min
- Sterilization Time ([3]; 10 PPM): 15 min
- Sterilization Time ([3]; 100 PPM): 15.0 min
- Sterilization Time ([3]; 1000 PPM): 2.5 min

Source: patent US4386103A, “Dichloroamino acid derivatives useful as potent germicidal and fungicidal agents” (Merck & Co., Inc., priority 1981, dated 1983)
